This is an account of results in DBAASP.

The structures appear in SMILES notation. Converted amounts (≈) assume the structure as drawn.

Holding throughout (experiment): ≥ marks a high value that may be exact or a test limit, other limits are often not marked, values filed in µg/mL are converted to µM
In experiment [1] the test system is Staphylococcus aureus 930918-3.
In experiment [2] the test system is Staphylococcus aureus 28841.
Experiment [3] has as its system Pseudomonas aeruginosa MR2123.
Experiment [4] relates to Salmonella enterica serovar typhimurium MS7953s.
In experiment [5] the test system is Salmonella enterica subsp. enterica serovar Typhimurium ATCC 14028s.
The subject of experiment [6] is Batrachochytrium dendrobatidis.
Experiment [7] relates to Enterococcus faecium.
Experiment [8] concerns Escherichia coli mcr106.
Experiment [9] concerns Staphylococcus aureus ATCC 25923.
Experiment [10] has as its system Staphylococcus aureus ATCC 29213.
For experiment [11], the system named is Listeria monocytogenes EGD.
For experiment [12], the system named is Pseudomonas aeruginosa ATCC 27853.
The subject of experiment [13] is Acinetobacter baumannii ATCC 19606.
The test system of experiment [14] is Klebsiella pneumoniae ATCC 13883.
Experiment [15] has as its system Mycobacterium tuberculosis H37Rv.
In experiment [16] the test system is Enterococcus faecalis ATCC 29212.
Experiment [17] relates to Enterococcus faecalis CDC 21.
For experiment [18], the system named is Escherichia coli ML-35p.
For experiment [19], the system named is Klebsiella pneumoniae.
In experiment [20] the test system is Mycobacterium avium.
Experiment [21] concerns Staphylococcus aureus 30371.
For experiment [22], the system named is Streptococcus agalactiae ATCC 12386.
The test system of experiment [23] is Acinetobacter baumannii ATCC 19606R.
For experiment [24], the system named is Escherichia coli ATCC 25922.
The subject of experiment [25] is Pseudomonas aeruginosa SBI-N.
Experiment [26] has as its system Mycobacterium tuberculosis.
Experiment [27] deals with Escherichia coli BAS 849.
Experiment [28] deals with Enterococcus faecium 94-132.
For experiment [29], the system named is Pseudomonas aeruginosa MR3007.
Experiment [30] deals with Shigella dysenteriae.
Experiment [31] deals with Staphylococcus aureus ATCC 2592.
Experiment [32] deals with Pseudomonas aeruginosa.
The test system of experiment [33] is Bacillus pumilus.
The test system of experiment [34] is Candida albicans ATCC 2002.
Experiment [35] concerns Bacillus cereus.
The subject of experiment [36] is Acinetobacter calcoaceticus.
Experiment [37] relates to Cryptococcus neoformans ATCC 208821.
For experiment [38], the system named is Fusarium oxysporum.
In experiment [39] the test system is Fusarium solani.
For experiment [40], the system named is Staphylococcus aureus USA 300.
The test system of experiment [41] is Staphylococcus aureus USA 100.
Experiment [42] relates to Pseudomonas aeruginosa ATCC 9027.
Experiment [43] concerns Acinetobacter baumannii b-01.
Experiment [44] deals with Acinetobacter baumannii b-04.
Experiment [45] concerns Acinetobacter baumannii b-02.
Experiment [46] concerns Acinetobacter baumannii b-03.
The test system of experiment [47] is Psychrobacter faecalis X29.
The test system of experiment [48] is Rhodococcus rhodochrous X15.

For orientation: MIC means the least concentration at which growth counts as inhibited. Take `CC[C@H](C)[C@H](NC(=O)CN)C(=O)NCC(=O)N[C@@H](CCCCN)C(=O)N[C@@H](Cc1ccccc1)C(=O)N[C@@H](CC(C)C)C(=O)N[C@@H](Cc1c[nH]cn1)C(=O)N[C@@H](CO)C(=O)N[C@@H](C)C(=O)NCC(=O)N[C@@H](CCCCN)C(=O)N[C@@H](Cc1ccccc1)C(=O)NCC(=O)N[C@@H](CCCCN)C(=O)N[C@@H](C)C(=O)N[C@@H](Cc1ccccc1)C(=O)N[C@H](C(=O)NCC(=O)N[C@@H](CCC(=O)O)C(=O)N[C@H](C(=O)N[C@@H](CCSC)C(=O)N[C@@H](CCCCN)C(=O)N[C@@H](CO)C(=O)O)[C@@H](C)CC)C(C)C` [GIGKFLHSAGKFGKAFVGEIMKS]: the MIC in experiment [1] is 9.13 µM (≈ 22 µg/mL); in experiment [2], not below 39.3 µM; in [3], 0.166 µM (≈ 0.4 µg/mL); in [4] it was 0.249 µM (≈ 0.6 µg/mL); in [5], 0.498 µM (≈ 1.2 µg/mL); in [6] it was not below 47 µM. Further, the minimum inhibitory concentration (MIC) in experiment [7] was 1.66 µM (≈ 4 µg/mL); in experiment [8] it was 0.373 µM (≈ 0.9 µg/mL); in [9] it was more than 207 µM; in [10], more than 207 µM; in [11] it was 1.91 µM (≈ 4.6 µg/mL); in [12], more than 207 µM. The MIC in experiment [13] is 26.6 µM (≈ 64 µg/mL); in experiment [14] it was not below 104 µM; in [15], not below 498 µM; in experiment [16], more than 207 µM; in experiment [17], 3.03 µM (≈ 7.3 µg/mL); in experiment [18], 0.29 µM (≈ 0.7 µg/mL). In addition, the MIC was 0.747 µM (≈ 1.8 µg/mL) in [19]; not below 53.1 µM in experiment [20]; not below 83 µM in [21]; 31.1 µM (≈ 75 µg/mL) in experiment [22]; 26.6 µM (≈ 64 µg/mL) in experiment [23]; 104 µM (≈ 250 µg/mL) in [24]. In addition, the MIC is 0.166 µM (≈ 0.4 µg/mL) in [25]; not below 53.1 µM in experiment [26]; 0.29 µM (≈ 0.7 µg/mL) in experiment [27]; 1.16 µM (≈ 2.8 µg/mL) in experiment [28]; 0.207 µM (≈ 0.5 µg/mL) in [29].
With `CC[C@H](C)[C@H](NC(=O)[C@@H]1CCCN1C(=O)[C@H](Cc1ccccc1)NC(=O)[C@@H](N)Cc1ccccc1)C(=O)N[C@H](C(=O)NCC(=O)N[C@@H](CCCCN)C(=O)N[C@@H](CC(C)C)C(=O)N[C@@H](CC(C)C)C(=O)N[C@@H](Cc1ccccc1)C(=O)NCC(=O)N[C@@H](CC(C)C)C(=O)N[C@@H](CC(C)C)C(N)=O)C(C)C` [FFPIVGKLLFGLL], the MIC in [30] worked out at 20.5 µM (≈ 30 µg/mL); in experiment [31] it was 5.12 µM (≈ 7.5 µg/mL); in experiment [32], 5.12 µM (≈ 7.5 µg/mL); in [33] it was 10.2 µM (≈ 15 µg/mL); in [34], 3.42 µM (≈ 5 µg/mL); in [24], 10.2 µM (≈ 15 µg/mL). In addition, the MIC in experiment [35] was not below 51.2 µM; in experiment [36] it was not below 41 µM.
Take `NC(=O)[C@H](Cc1c[nH]c2ccccc12)NC(=O)[C@H](CCCN=C(N)N)NC(=O)[C@H](Cc1c[nH]c2ccccc12)NC(=O)[C@H](CCCN=C(N)N)NC(=O)[C@H](Cc1c[nH]c2ccccc12)NC(=O)[C@H](CCCN=C(N)N)NC(=O)[C@H](Cc1c[nH]c2ccccc12)NC(=O)[C@@H](N)CCCN=C(N)N` [RWRWRWRW]: the MIC in [37] turned out to be 23.1 µM (≈ 32 µg/mL); in [38], 16 µM (≈ 22.2 µg/mL); in [39] it was 8 µM (≈ 11.1 µg/mL); in experiment [40] it was 12.5 µM (≈ 17.3 µg/mL); in [41] it was 6.25 µM (≈ 8.67 µg/mL); in [42], 50 µM (≈ 69.3 µg/mL).
Consider `CC[C@H](C)[C@H](NC(=O)[C@H](Cc1ccccc1)NC(=O)[C@H](CO)NC(=O)[C@H](CCCCN)NC(=O)[C@H](Cc1c[nH]c2ccccc12)NC(=O)[C@@H](N)CCCCN)C(=O)N[C@@H](CCCCN)C(=O)N[C@@H](CCCCN)C(=O)N[C@@H](CC(C)C)C(=O)N[C@H](C(=O)N[C@@H](CO)C(=O)N[C@@H](CCCCN)C(=O)N[C@@H](Cc1ccccc1)C(=O)N[C@@H](CC(C)C)C(=O)N[C@@H](Cc1cnc[nH]1)C(=O)N[C@@H](CO)C(=O)N[C@@H](C)C(=O)N[C@@H](CCCCN)C(=O)N[C@@H](CCCCN)C(=O)N[C@@H](Cc1ccccc1)C(N)=O)[C@@H](C)O` [KWKSFIKKLTSKFLHSAKKF], for which the minimum inhibitory concentration (MIC) in [32] was 1.27 µM (≈ 3.12 µg/mL); in [43] it was 1.27 µM (≈ 3.12 µg/mL); in [44] it was 1.27 µM (≈ 3.12 µg/mL); in experiment [45], 2.55 µM (≈ 6.25 µg/mL); in experiment [46], 2.55 µM (≈ 6.25 µg/mL).
For `CC[C@H](C)[C@H](NC(=O)[C@H](C)NC(=O)[C@@H](NC(=O)[C@H](CC(=O)O)NC(=O)[C@H](CCCCN)NC(=O)[C@H](Cc1ccccc1)NC(=O)[C@@H](NC(=O)[C@H](CC(=O)O)NC(=O)[C@H](CC(C)C)NC(=O)[C@@H](NC(=O)CN)C(C)C)[C@@H](C)O)C(C)C)C(=O)NCC(=O)N[C@H](C(=O)N[C@@H](C)C(=O)N[C@@H](CCCCN)C(=O)NCC(=O)N[C@@H](C)C(=O)NCC(=O)N[C@H](C(=O)NCC(=O)N[C@H](C(=O)N[C@@H](CC(C)C)C(=O)N[C@@H](CCCCN)C(=O)N[C@@H](C)C(=O)N[C@@H](CC(C)C)C(=O)N[C@@H](CC(C)C)C(=O)N[C@H]1CSSC[C@@H](C(=O)O)NC(=O)[C@H](CO)NC(=O)[C@H](CCCCN)NC(=O)[C@H](CC(=O)O)NC(=O)[C@H](CC(C)C)NC(=O)[C@H](CCCCN)NC1=O)C(C)C)[C@@H](C)O)C(C)C` [GVLDTFKDVAIGVAKGAGTGVLKALLCKLDKSC], the values for the MIC in experiment [31], in experiment [47] and in experiment [48] were not below 60 µM, 15 µM (≈ 49.3 µg/mL) and 30 µM (≈ 98.7 µg/mL), respectively.
